# Tests used:
# [1] = Differential scanning calorimetry (DSC) thermal analysis; type: physicochemical; details: crystalline solid; linear heating ramp of 10° C./min from 22° C. to 250° C.
# Procedure: Differential scanning calorimetry (DSC) was performed using a TA Instruments Model Q-100 module with a Thermal Analyst controller. Data were collected and analyzed using TA Instruments Thermal Solutions software. A 2.05 mg sample of the crystalline compound of Example 1 was accurately weighed into a covered aluminum pan. After a 5 minute isothermal equilibration period at 22° C., the sample was heated using a linear heating ramp of 10° C./min from 22° C. to 250° C.
# A 1.12 mg sample of the crystalline compound of Example 2 was similarly evaluated.
# [2] = Thermogravimetric analysis (TGA); type: physicochemical; details: crystalline solid; from room temperature to 150.0° C.
thermal stability: no thermal decomposition below (DSC thermograph) [1] [°C],"loss of weight (residual moisture or solvent), TGA trace [2] [%]",SMILES
≥ 150.0,< 0.5,"CCOc1nc(CC)c(CN)n1Cc1ccc(-c2ccccc2C(=O)OC(C)(C)C)cc1F [Example 1, 4′-(5-aminomethyl-2-ethoxy-4-ethylimidazol-1-ylmethyl)-3′-fluorobiphenyl-2-carboxylic acid t-butyl ester]"
≥ 150.0,–,"CCOc1nc(CC)c(CNC(=O)[C@H](CC(C)C)SC(C)=O)n1Cc1ccc(-c2ccccc2C(=O)O)cc1F [Example 2, 4′-{5-[((S)-2-acetylsulfanyl-4-methylpentanoylamino)methyl]-2-ethoxy-4-ethylimidazol-1-ylmethyl}-3′-fluorobiphenyl-2-carboxylic acid]"

# Reference: patent publication US9221763B2, “Process for preparing biphenyl imidazole compounds” (Theravance Biopharma R&D IP, LLC, priority 2009, dated 2015)
